Source: patent US20060189591A1, “Five-membered heterocyclic derivative” (DAIICHI PHARMACEUTICAL CO., LTD., priority 2003, published 2006)
pIC50: −log10 of the molar value. Where a name gives a salt, the structure may show the parent alone. Read-outs that look alike come from different tables or passages of the source.

Experiments:
[1] = test system: collagen-induced platelet aggregation; experiment: Inhibitory activity for platelet aggregation (collagen-induced, human platelet rich plasma); format: cell-based; details: human PRP, read-out: Inhibition of collagen-induced platelet aggregation, IC50
Procedure: Inhibitory Activity for Platelet Aggregation
Human blood was collected in the presence of 3.13% sodium citrate as an anticoagulant in a volume 1/10 the blood volume. The collected blood was centrifuged at 180×g for 10 minutes so as to separate the upper layer; i.e., platelet rich plasma (PRP) from the blood. The remaining lower layer was further centrifuged at 1,600×g for 10 minutes, and platelet poor plasma ([…]); i.e., the thus-obtained upper layer, was collected. A solution (1 μL) of the compound of the Examples was added to PRP (200 μL), and the mixture was allowed to stand at 37° C. for 2 minutes. Subsequently, collagen (2 μL) was added to the resultant mixture so as to induce platelet aggregation. Percentage of platelet aggregation was measured using PAM-12C (SSR Engineering). Optical transmittance of PPP was employed as the value reflecting the state in which 100% aggregation occurred. Percent of platelet aggregation values of PRP were determined at a series of concentrations of each Example compound and IC50 of each compound was calculated.

Cyclooxygenase-1 (COX-1) = target: T1, Cyclooxygenase-1 (COX-1) (Ovis aries, UniProt P05979); experiment: COX Inhibitor Screening Assay Kit, COX-1; format: biochemical; details: 50 μM compound; read-out: Inhibitory effect against COX-1 at 50 μM (% inhibition)
T1 construct: purchased Cayman Chemical Company 560101
T1 sequence (P05979 25-600): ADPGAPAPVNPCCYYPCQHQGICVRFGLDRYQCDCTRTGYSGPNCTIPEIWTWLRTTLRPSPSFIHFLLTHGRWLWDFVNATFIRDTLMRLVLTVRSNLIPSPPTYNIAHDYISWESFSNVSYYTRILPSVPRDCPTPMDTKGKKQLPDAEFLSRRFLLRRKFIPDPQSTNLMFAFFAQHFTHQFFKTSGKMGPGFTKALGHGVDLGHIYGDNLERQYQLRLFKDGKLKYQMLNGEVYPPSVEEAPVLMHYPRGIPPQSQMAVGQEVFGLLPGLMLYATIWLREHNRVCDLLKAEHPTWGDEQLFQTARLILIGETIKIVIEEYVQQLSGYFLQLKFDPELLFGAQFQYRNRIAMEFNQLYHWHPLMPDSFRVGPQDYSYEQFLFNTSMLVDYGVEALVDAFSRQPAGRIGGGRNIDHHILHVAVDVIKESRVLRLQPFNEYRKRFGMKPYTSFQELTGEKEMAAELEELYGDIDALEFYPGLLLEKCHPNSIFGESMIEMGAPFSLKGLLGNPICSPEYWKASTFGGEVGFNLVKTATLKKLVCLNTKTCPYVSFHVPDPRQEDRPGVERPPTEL
Procedure: (§1) Inhibitory Effects on Cyclooxygenase-1 (COX-1) and Cyclooxygenase-2 (COX-2)
(§2) Inhibitory activity against COX-1 and COX-2 of the compounds produced in the Examples was measured by use of a COX Inhibitor Screening Assay Kit (product of Cayman Chemical Company, Catalog Nos. 560101 and 560121).
(§3) Before starting the measurement, reaction buffer, heme, arachidonic acid, SnCl2, EIA buffer, washing buffer, prostaglandin (PG) screening EIA standard, PG screening acetylcholine esterase (AchE), tracer (chromogenic enzyme […] conjugate), and PG screening EIA antiserum were prepared ready for use.
(§4) (1) Production of PGF2α in the presence of COX-1 or COX-2
(§5) A reaction mixture containing the compound of the Examples (50 μM) and COX-1 or COX-2 was allowed to stand at 37° C. for 10 minutes. Arachidonic acid ([…]) was added thereto, and the resultant mixture was further allowed to stand at 37° C. for 2 minutes. 1N-Hydrochloric acid (50 μL) was added to the reaction mixture, to thereby stop the reaction. SnCl2 solution (100 μL) was added thereto, and the resultant mixture was allowed to stand at room temperature for 5 minutes.
(§6) (2) Quantitative Determination of PGF2α using ELISA
(§7) Antiserum (rabbit anti-PGF2α antibody, 50 μL) was added to the wells of 96 well plate that had been coated with mouse anti-rabbit IgG. A solution of PGF2α-containing mixture obtained above (2000-fold diluted, 50 μL) and AchE tracer (50 μL) were added to the well in this order, and the mixture was allowed to stand at room temperature for 18 hours. The wells were washed 5 times with the washing buffer to remove an excessive AchE tracer, and Ellman reagent (200 μL) was added. After leaving the plate in a dark room for 60 minutes, absorbance was measured at 405 nm.
(§8) (3) Calculation of Inhibitory Activity of the Compound of the Examples
(§9) A calibration curve was obtained by use of the PG screening EIA standard, and the production amount of PGF2α was determined from the absorbance above. Percent inhibition against COX-1 or COX-2 at 50 μM of the compound of the Examples was calculated.

Cyclooxygenase-2 (COX-2) = target: T2, Cyclooxygenase-2 (COX-2) (Homo sapiens, UniProt P35354); experiment: COX Inhibitor Screening Assay Kit, COX-2; format: biochemical; details: 50 μM compound; read-out: Inhibitory effect against COX-2 at 50 μM (% inhibition)
T2 construct: purchased Cayman Chemical Company 560121
T2 sequence (P35354 18-604): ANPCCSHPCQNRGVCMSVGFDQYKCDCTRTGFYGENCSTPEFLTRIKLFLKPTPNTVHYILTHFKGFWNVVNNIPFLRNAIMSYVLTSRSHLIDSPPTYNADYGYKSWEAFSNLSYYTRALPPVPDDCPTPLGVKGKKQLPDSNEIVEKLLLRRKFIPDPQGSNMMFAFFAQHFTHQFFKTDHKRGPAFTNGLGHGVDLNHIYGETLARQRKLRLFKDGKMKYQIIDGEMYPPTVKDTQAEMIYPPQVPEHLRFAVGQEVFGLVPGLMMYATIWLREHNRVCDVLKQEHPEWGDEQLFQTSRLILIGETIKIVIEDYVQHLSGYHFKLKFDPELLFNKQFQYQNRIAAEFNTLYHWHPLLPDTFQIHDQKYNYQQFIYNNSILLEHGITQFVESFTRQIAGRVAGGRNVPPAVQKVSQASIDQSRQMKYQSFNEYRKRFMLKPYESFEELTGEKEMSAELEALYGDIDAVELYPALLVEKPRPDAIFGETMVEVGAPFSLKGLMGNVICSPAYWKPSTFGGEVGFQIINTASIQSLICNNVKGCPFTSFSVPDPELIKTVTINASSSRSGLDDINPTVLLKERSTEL
Procedure: as §1, §2, §3, §4, §5, §6, §7, §8, §9

COX = details: background art; cited from earlier work
[2] = test system: collagen-induced platelet aggregation; details: cited from earlier work

| Compound | pIC50 [1] | inhibition at 50 µM (Cyclooxygenase-1 (COX-1)) | inhibition at 50 µM (Cyclooxygenase-2 (COX-2)) | further results |
| --- | --- | --- | --- | --- |
| COc1ccc(-n2nc(C(=O)N3CCC(F)(F)CC3)nc2-c2ccc(C)cn2)cn1 [Example 74, 1-[1-(6-Methoxy-3-pyridyl)-5-(5-methyl-2-pyridyl)-1H-1,2,4-triazole-3-carbonyl]-4,4-difluoropiperidine] | 7.68 | 46.9% | – | – |
| COc1ccc(-c2nc(C(=O)N3CCN(C)CC3)nn2-c2ccc(C)cc2)cn1 [Example 38, 1-[5-(6-Methoxy-3-pyridyl)-1-(4-methylphenyl)-1H-1,2,4-triazole-3-carbonyl]-4-methylpiperazine hydrochloride] | 6.49 | 3.5% | 10.7% | – |
| COc1ccc(-c2nc(C(=O)N3CCN(C)CC3)sc2-c2ccc(OC)cc2)cc1 [thiazole derivative (C)] | – | – | – | COX inhibiting effect (COX): inhibits COX |
| COc1ccc(-n2nc(C(=O)N3CCC(F)(F)CC3)nc2-c2ccc(F)cn2)cn1 [Example 71, 1-[5-(5-Fluoro-2-pyridyl)-1-(6-methoxy-3-pyridyl)-1H-1,2,4-triazole-3-carbonyl]-4,4-difluoropiperidine] | 6.72 | 35.2% | – | – |
| COc1ccc(-c2nc(C(=O)N3CCN(C)CC3)cn2-c2ccc(F)cc2)cn1 [Example 6, 1-[1-(4-Fluorophenyl)-2-(6-methoxy-3-pyridyl)-1H-imidazole-4-carbonyl]-4-methylpiperazine] | 6.48 | 28.4% | 23.4% | – |
| CS(=O)(=O)c1ccc(-c2cc(C#N)nn2-c2ccc(F)cc2)cc1 [Compound (A)] | – | – | – | pIC50 ([2]; prior-art compound, background art, read-out: IC50 value against collagen-induced platelet aggregation): 5.28 |
| CN1CCN(C(=O)c2nc(-c3ccccc3)c(-c3ccccc3)o2)CC1 [Example 25, 1-(4,5-diphenyloxazole-2-carbonyl)-4-methylpiperazine] | 6.15 | 3.1% | -8.7% | – |
| COc1ccc(-n2nc(C(=O)N3CCC(F)(F)CC3)nc2-c2ccc(C#N)cn2)cn1 [Example 67, 1-[5-(5-Cyano-2-pyridyl)-1-(6-methoxy-3-pyridyl)-1H-1,2,4-triazole-3-carbonyl]-4,4-difluoropiperidine] | 6.66 | – | – | – |
| COc1ccc(-n2nc(C(=O)N3CCN(C)CC3)nc2-c2ccc(C)cc2)cn1 [Example 37, 1-[1-(6-Methoxy-3-pyridyl)-5-(4-methylphenyl)-1H-1,2,4-triazole-3-carbonyl]-4-methylpiperazine hydrochloride] | 6.57 | -3.2% | -0.8% | – |
| COc1ccc(-c2nc(C(=O)N3CCC(OC)CC3)cn2-c2ccccn2)cn1 [Example 65, 1-[2-(6-Methoxy-3-pyridyl)-1-(2-pyridyl)-1H-imidazole-4-carbonyl]-4-methoxypiperidine] | 6.92 | – | – | – |
| COc1ccc(-c2nc(C(=O)N3CCC(F)(F)CC3)cn2-c2ccccn2)cn1 [Example 63, 1-[2-(6-Methoxy-3-pyridyl)-1-(2-pyridyl)-1H-imidazole-4-carbonyl]-4,4-difluoropiperidine] | 7.70 | 3.4% | 7.5% | – |
| COc1ccc(-n2nc(C(=O)N3CCN(C)CC3)nc2-c2ccccn2)cn1 [Example 66, 1-[1-(6-Methoxy-3-pyridyl)-5-(2-pyridyl)-1H-1,2,4-triazole-3-carbonyl]-4-methylpiperazine] | 6.15 | – | – | – |
| COc1ccc(-c2nc(C(=O)N3CCC[C@@H](F)C3)cn2-c2ccccn2)cn1 [Example 72, (3R)-1-[2-(6-Methoxy-3-pyridyl)-1-(2-pyridyl)-1H-imidazole-4-carbonyl]-3-fluoropiperidine] | 6.96 | 39% | – | – |
| COc1ccc(-c2nc(C(=O)N3CCC(F)CC3)cn2-c2ccccn2)cn1 [Example 64, 1-[2-(6-Methoxy-3-pyridyl)-1-(2-pyridyl)-1H-imidazole-4-carbonyl]-4-fluoropiperidine] | 7.22 | -1.4% | 4.5% | – |
| Cc1ccc(-n2cc(C(=O)N3CCN(C)C(=O)C3)nc2-c2ccc(C)nc2)cc1 [Example 32, 1-[1-(4-Methylphenyl)-2-(6-methyl-3-pyridyl)-1H-imidazole-4-carbonyl]-4-methyl-3-oxopiperazine] | 6.39 | 5.6% | -2.2% | – |
| COc1ccc(-c2cc(C(F)F)nn2-c2ccc(S(N)(=O)=O)cc2)cc1F [compound (B)] | – | – | – | platelet aggregation inhibitory activity ([2]; compared with inhibitory activity against COX-2): not so strong compared with its inhibitory activity against COX-2 |
